In one series the target is T1, OATP1B1 (Homo sapiens, UniProt Q9Y6L6).
T1 sequence (Q9Y6L6 1-691): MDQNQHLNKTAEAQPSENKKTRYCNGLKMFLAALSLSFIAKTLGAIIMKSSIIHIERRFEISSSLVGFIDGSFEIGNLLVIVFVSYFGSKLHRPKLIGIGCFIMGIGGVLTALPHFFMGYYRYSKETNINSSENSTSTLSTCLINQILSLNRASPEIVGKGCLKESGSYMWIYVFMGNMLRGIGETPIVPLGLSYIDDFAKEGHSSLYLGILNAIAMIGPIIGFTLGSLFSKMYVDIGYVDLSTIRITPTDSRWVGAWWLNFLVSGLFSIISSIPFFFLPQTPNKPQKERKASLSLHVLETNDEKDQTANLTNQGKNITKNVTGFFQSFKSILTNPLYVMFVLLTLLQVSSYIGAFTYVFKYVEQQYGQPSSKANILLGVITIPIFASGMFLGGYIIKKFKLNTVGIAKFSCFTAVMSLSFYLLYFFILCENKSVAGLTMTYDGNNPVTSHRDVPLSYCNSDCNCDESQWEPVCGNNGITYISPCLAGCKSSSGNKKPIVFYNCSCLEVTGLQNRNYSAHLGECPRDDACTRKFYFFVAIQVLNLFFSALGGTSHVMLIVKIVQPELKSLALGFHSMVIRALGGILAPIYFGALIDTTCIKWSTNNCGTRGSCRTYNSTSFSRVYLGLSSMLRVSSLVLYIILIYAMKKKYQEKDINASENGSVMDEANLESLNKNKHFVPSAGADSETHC
As to the kind of experiment: Uptake into HEK293 cells expressing OATP1B1. The settings on record: for Uptake Rate / Fold-Change: 6 μM; for Substrate: OATP1B1; for Fold-Change: vs HEK293-mock.

In another series the test system is gastric pH. The settings on record: cited from earlier work; for % time pH > 4.0 over a period of 24 h: 40 mg dose group, healthy subjects.
The target in a further series is T2, P-gp (Homo sapiens, UniProt P08183).
T2 construct: host or cells: LLC-PK1 (porcine kidney cells)
Kind of series: Permeability in LLC-PK1-P-gp cells. The format is in vitro ADME. The settings on record: for Substrate: P-gp; for Papp A→B at 1 h, 4 µM / Papp B→A at 1 h, 4 µM / efflux ratio at 1 h, 4 µM: pig, LLC-PK1-P-gp; for efflux ratio at 1 h, 4 µM: read-out: ER. The protocol: LLC-PK1-P-gp or BCRP cells were seeded on collagen-coated 24-transwell membranes at a density of 2.5 × 10^5 cells/mL and maintained at 37 °C in a humidified atmosphere with 5% CO2/95% air for 5 days in Medium 199 supplemented with 10% […], 50 μg/mL of gentamycin, and 50 μg/mL of hygromycin. The culture medium was replaced every other day. On the day of the experiment, the growth medium was discarded, and the attached cells were washed with prewarmed HBSS (pH 7.4) and preincubated with HBSS for 20 min at 37 °C. […] Aliquots (0.1 mL) in the apical side were transferred to clean tubes every 15 min for 1 h and replaced with an equal volume of fresh HBSS.
LLC-PK1-P-gp or BCRP cells were seeded on collagen-coated 24-transwell membranes at a density of 2.5 × 10^5 cells/mL and cultured for 5 days. The growth medium was discarded on the day of the experiment, and the attached cells were washed with prewarmed HBSS (pH 7.4) and preincubated with HBSS for 20 min at 37 °C. […] Aliquots (0.1 mL) in the apical side were transferred to clean tubes every 15 min for 1 h and replaced with an equal volume of fresh HBSS. Aliquots (30 μL) of each sample were vortex-mixed with 90 μL of IS solution for 1 min, and then centrifugation was performed at 13,500 rpm at 4 °C for 5 min. Aliquots (5 μL) of the supernatant were injected into the LC-MS/MS for analysis.
The permeability (Papp) was calculated from the following equation [23, 24]: Papp(cm/s)=transport ratenmol/s/JP−1366 or M1 concentration (μM)×surface area of membrane (cm^2)

The target in another series is T3, OATP1B3 (Homo sapiens, UniProt Q9NPD5).
T3 sequence (Q9NPD5 1-702): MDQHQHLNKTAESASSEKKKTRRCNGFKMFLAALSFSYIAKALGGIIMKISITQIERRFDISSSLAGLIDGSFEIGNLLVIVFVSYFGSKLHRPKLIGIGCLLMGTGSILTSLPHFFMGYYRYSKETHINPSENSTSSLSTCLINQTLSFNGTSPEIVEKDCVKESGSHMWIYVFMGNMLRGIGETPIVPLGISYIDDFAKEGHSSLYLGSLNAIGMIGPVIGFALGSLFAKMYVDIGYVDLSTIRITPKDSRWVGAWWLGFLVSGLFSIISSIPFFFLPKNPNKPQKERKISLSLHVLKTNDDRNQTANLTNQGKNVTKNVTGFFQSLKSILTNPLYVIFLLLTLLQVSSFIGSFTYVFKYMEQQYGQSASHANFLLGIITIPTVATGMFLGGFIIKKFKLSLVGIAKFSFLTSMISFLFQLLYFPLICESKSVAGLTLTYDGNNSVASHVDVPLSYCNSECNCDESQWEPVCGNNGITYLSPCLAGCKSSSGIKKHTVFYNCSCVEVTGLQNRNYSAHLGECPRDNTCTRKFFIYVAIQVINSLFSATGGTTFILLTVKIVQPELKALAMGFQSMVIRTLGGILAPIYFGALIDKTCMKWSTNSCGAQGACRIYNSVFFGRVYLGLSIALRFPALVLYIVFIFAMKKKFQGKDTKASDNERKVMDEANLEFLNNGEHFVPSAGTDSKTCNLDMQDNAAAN
As to the kind of experiment: Uptake into HEK293 cells expressing OATP1B3. The settings on record: for Uptake Rate / Fold-Change: 6 μM; for Substrate: OATP1B3; for Fold-Change: vs HEK293-mock.

Series [1] relates to human liver microsomes (HLM). As to the kind of experiment: Enzyme kinetics of JP-1366 metabolism in human liver microsomes. The format is in vitro ADME. The protocol: (§1) The reaction was initiated by adding 5 μL of NADPH-generating system in triplicate, and the mixture was further incubated for 30 min at 37 °C in a shaking water bath.
(§2) The concentrations of the metabolites were quantitated, and their formation rates (pmol/mg protein/min) were calculated by dividing the amounts of metabolites formed from the incubation with human liver microsomes and human cDNA-expressed CYP or UGT enzymes by the incubation time.
(Microsomes from liver hold many membrane-bound enzymes, among them those of drug oxidation.)

The target in series [2] is T4, human cDNA-expressed CYP3A5 (Homo sapiens, UniProt P20815).
T4 construct: purchased Corning Life Sciences
Kind of series: Enzyme kinetics of JP-1366 metabolism in cDNA-expressed CYP3A5. The format is in vitro ADME. The protocol:
as §1, §2

Series [3] has as its target T5, human cDNA-expressed CYP3A4 (Homo sapiens, UniProt P08684).
T5 construct: purchased Corning Life Sciences
Kind of series: Enzyme kinetics of JP-1366 metabolism in cDNA-expressed CYP3A4. The format is in vitro ADME. As to the method:
as §1, §2

The mark [4] stands for this setting: pH 7.4, with CsA 20 μM, CsA 20 μM.
The mark [5] stands for this setting: formation of the labelled metabolite from JP-1366, CYP3A5.
Setting [6] is: formation of the labelled metabolite from JP-1366, CYP3A4.

Data on 2 compounds can be found in article PMC11207335, “In Vitro Metabolism and Transport Characteristics of Zastaprazan” (Pharmaceutics, 2024).

What is called Papp A→B is the apparent permeability from the apical to the basolateral side of a cell layer. Read a high Papp A→B as fast passage. One may read the Papp B→A as how fast a substance crosses the layer from the basolateral side.

“And” between values parts separate entries of the source, which are not always exact repeats. Equal entries are not always repeated. Where two headings read alike, the source gives them in different places.

T4 sequence (P20815 whole entry): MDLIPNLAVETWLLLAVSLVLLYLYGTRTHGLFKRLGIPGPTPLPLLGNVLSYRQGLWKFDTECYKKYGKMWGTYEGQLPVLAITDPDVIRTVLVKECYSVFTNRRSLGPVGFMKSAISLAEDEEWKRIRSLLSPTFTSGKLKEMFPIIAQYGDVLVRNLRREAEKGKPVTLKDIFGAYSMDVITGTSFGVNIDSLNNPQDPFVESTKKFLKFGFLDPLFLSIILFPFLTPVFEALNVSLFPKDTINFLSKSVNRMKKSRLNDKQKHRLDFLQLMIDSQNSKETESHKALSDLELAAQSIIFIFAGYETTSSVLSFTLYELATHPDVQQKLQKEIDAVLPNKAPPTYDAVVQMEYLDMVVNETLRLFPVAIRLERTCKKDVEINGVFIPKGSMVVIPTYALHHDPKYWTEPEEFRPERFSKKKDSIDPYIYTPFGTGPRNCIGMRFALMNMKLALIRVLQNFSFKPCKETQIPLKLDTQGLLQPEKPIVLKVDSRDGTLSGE
T5 sequence (P08684 whole entry): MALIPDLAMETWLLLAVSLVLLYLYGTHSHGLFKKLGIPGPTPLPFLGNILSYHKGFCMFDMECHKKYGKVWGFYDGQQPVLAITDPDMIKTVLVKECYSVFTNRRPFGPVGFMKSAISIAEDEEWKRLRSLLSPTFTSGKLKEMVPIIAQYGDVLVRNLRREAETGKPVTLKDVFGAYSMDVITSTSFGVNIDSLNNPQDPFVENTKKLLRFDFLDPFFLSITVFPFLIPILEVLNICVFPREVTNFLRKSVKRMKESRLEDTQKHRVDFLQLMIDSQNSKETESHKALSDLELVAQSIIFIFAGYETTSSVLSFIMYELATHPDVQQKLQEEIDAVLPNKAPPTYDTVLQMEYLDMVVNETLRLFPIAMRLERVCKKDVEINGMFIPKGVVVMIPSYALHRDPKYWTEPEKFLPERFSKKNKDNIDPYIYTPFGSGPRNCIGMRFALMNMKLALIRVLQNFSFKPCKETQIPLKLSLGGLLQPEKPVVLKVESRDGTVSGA
T2 sequence (P08183 whole entry): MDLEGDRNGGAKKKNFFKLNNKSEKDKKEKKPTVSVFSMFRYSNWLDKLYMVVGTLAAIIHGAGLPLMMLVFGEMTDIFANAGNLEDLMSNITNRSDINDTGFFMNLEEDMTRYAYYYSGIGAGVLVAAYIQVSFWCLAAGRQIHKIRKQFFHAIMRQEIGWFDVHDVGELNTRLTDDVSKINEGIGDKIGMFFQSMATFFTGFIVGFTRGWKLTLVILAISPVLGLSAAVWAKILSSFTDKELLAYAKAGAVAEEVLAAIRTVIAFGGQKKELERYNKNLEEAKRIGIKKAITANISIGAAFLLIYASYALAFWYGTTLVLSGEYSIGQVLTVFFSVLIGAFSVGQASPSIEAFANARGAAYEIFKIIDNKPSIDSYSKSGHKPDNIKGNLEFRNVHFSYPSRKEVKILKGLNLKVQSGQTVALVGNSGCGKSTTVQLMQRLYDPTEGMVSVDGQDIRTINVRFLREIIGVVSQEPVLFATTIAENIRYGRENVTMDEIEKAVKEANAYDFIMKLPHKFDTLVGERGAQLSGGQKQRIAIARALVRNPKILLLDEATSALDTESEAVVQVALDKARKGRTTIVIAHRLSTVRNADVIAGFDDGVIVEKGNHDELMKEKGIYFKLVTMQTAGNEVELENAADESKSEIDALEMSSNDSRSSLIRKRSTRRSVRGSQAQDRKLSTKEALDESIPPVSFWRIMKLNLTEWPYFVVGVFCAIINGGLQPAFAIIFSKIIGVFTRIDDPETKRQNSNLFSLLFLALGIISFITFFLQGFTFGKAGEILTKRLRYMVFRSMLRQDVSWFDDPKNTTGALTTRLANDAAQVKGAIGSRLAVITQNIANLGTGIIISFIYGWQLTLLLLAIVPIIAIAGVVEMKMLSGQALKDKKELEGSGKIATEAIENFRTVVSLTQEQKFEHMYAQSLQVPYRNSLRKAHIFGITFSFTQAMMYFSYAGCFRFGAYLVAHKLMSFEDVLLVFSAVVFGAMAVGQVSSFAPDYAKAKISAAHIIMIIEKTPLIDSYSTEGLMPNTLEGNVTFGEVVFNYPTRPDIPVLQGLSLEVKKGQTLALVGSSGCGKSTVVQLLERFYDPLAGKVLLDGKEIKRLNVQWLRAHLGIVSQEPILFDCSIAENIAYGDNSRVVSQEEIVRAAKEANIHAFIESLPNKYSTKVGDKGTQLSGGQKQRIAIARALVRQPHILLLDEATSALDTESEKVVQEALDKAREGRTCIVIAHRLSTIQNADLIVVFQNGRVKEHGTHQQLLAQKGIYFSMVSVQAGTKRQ

Take `Cc1cccc(C)c1CNc1cc(C(=O)N2CCC2)cn2c(C)c(C)nc12` [JP-1366, 1-azetidinyl(8-(((2,6-dimethylphenyl)methyl)amino)-2,3-dimethylimidazo(1,2-a)pyridin-6-yl)methanone]: the “Uptake Rate” value at OATP1B1 (HEK293-OATP1B1, control) is 52.79 ± 2.39 pmol/min/10^5 Cells; at OATP1B1 (HEK293-OATP1B1, rifampin 20 μM), 53.60 ± 3.73 pmol/min/10^5 Cells; at OATP1B3 (HEK293-OATP1B3, control), 44.54 ± 0.74 pmol/min/10^5 Cells; on OATP1B3 (HEK293-OATP1B3, rifampin 20 μM) it was 52.67 ± 2.99 pmol/min/10^5 Cells. The Substrate entry at OATP1B1, on P-gp and on OATP1B3 was “No” in each case. In addition, the “% time pH > 4.0 over a period of 24 h” value in the series with gastric pH (MAD) was 89.28 ± 9.12% and 89.28% ± 9.12%; with gastric pH (SAD), 91.84% ± 4.06%. Also, in the series on gastric pH (repeated 40 mg dose), the “% time pH > 4 at nighttime” value was 89.28% ± 9.12%. In addition, the Papp A→B at 1 h, 4 µM on P-gp (setting [4]) came out at 20.7 ± 1.31 ×10⁻⁶ cm/s; on P-gp (pH 7.4, Control), 20.3 ± 0.53 ×10⁻⁶ cm/s. For the same compound, the Papp B→A at 1 h, 4 µM was found to be 32 ± 0.94 ×10⁻⁶ cm/s at P-gp (setting [4]) and 25.6 ± 1.71 ×10⁻⁶ cm/s at P-gp (pH 7.4, Control).
On to `Cc1cccc(CO)c1CNc1cc(C(=O)N2CCC2)cn2c(C)c(C)nc12` [M1, azetidin-1-yl(8-((2-(hydroxymethyl)-6-methyl-benzyl)amino)-2,3-dimethylimidazo[1,2-a]pyridin-6-yl)methanone], for which the “Uptake Rate” value is 52.79 ± 2.39 pmol/min/10^5 Cells at OATP1B1 (HEK293-OATP1B1, control); 53.60 ± 3.73 pmol/min/10^5 Cells at OATP1B1 (HEK293-OATP1B1, rifampin 20 μM); 44.54 ± 0.74 pmol/min/10^5 Cells at OATP1B3 (HEK293-OATP1B3, control); 52.67 ± 2.99 pmol/min/10^5 Cells on OATP1B3 (HEK293-OATP1B3, rifampin 20 μM). The Fold-Change is 1.0 on OATP1B1 (HEK293-OATP1B1, control); 1.0 on OATP1B1 (HEK293-OATP1B1, rifampin 20 μM); 0.9 at OATP1B3 (HEK293-OATP1B3, control); 1.0 at OATP1B3 (HEK293-OATP1B3, rifampin 20 μM). Further, the Substrate entry at OATP1B1 is “No”; at P-gp, “Yes”; at OATP1B3, “No”. Also, the Vmax in series [1] (formation of the labelled metabolite from JP-1366, HLM) was 826.1 pmol/min/mg protein. Besides, the Ki in series [1] (substrate inhibition kinetics, formation of the labelled metabolite, HLM) was 96.5 µM. Besides, the Papp A→B at 1 h, 4 µM on P-gp (setting [4]) was determined as 18.5 ± 0.96 ×10⁻⁶ cm/s; on P-gp (pH 7.4, Control), 6.99 ± 0.6 ×10⁻⁶ cm/s. Moreover, the Papp B→A at 1 h, 4 µM on P-gp (setting [4]) worked out at 62.8 ± 5.26 ×10⁻⁶ cm/s; at P-gp (pH 7.4, Control), 99.3 ± 1.66 ×10⁻⁶ cm/s. The efflux ratio at 1 h, 4 µM at P-gp (setting [4]) stood at 3.4; at P-gp (pH 7.4, Control), 14.2. Moreover, the CLint in series [2] (setting [5]) was 0.33 μL/min/pmol CYP; in series [3] (setting [6]) it was 0.35 μL/min/pmol CYP. For the same compound, the “n (Hill coefficient)” value was determined as 1.5 in series [2] (setting [5]) and 2.9 in series [3] (setting [6]). Further, the “Contribution (%)” value in series [2] (relative contribution of CYP3A5 to formation of the labelled metabolite) came to 68.6%; in series [3] (relative contribution of CYP3A4 to formation of the labelled metabolite), 17.3%.
